Data on 18 compounds can be found in the Kinase Knowledgebase extract (Sharma et al. 2016).

By IC50 is commonly meant the concentration that inhibits the measured activity by half. The low end stands for inhibition by little substance, the high end for a need for much substance.

For the assay, the target named is MAPK14;MAPK11;MAPK12;MAPK13 (human) (UniProt Q16539). The experiment in a line: Assessment of Activity of MAPK11, MAPK12, MAPK13 and MAPK14 Kinases.
The compound `Cc1ccc(C(N)=O)cc1Nc1cc(=O)n(C)c2c1cnn2-c1ccc(F)cc1F` gave an IC50 of less than 25 nM.

Regarding `Cc1ccc(C(=O)NC2CC2)cc1Nc1cc(=O)n(C)c2c1cnn2-c1cc(F)ccc1F`, the IC50 is less than 25 nM.

In turn, `Cc1ccc(C(=O)NC2CC2)cc1Oc1cc(=O)n(C)c2c1cnn2-c1cc(F)ccc1F` gave an IC50 of less than 25 nM.

Compound `Cc1ccc(C(N)=O)cc1Nc1cc(=O)n(C)c2c1cnn2-c1cc(F)ccc1F` displayed an IC50 of less than 25 nM. As for `Cc1ccc(C(=O)NC2CC2)cc1Oc1cc(=O)n(C)c2c1cnn2-c1ccc(F)cc1F`, the figure is less than 25 nM; as for `Cc1ccc(C(=O)NC2CC2)cc1Oc1cc(=O)n(C)c2c1cnn2-c1cccc(F)c1`, less than 25 nM; as for `Cc1ccc(C(=O)NC2CC2)cc1Nc1cc(=O)n(C)c2c1cnn2-c1cccc(F)c1`, less than 25 nM. To `Cc1ccc(C(=O)NC2CC2)cc1Oc1cc(=O)n(C)c2c1cnn2-c1c(F)cccc1F` belongs less than 25 nM. As for `CCn1c(=O)cc(Oc2cc(C(=O)NC3CC3)ccc2C)c2cnn(-c3ccc(F)cc3)c21`, the figure is less than 25 nM; as for `Cn1c(=O)cc(Nc2cc(C(=O)NC3CC3)ccc2Cl)c2cnn(-c3c(F)cccc3F)c21`, less than 25 nM; as for `Cc1ccc(C(=O)NC2CC2)cc1Nc1cc(=O)n(C)c2c1cnn2-c1c(F)cccc1F`, less than 25 nM. Take `CONC(=O)c1ccc(C)c(Nc2cc(=O)n(C)c3c2cnn3-c2ccc(F)cc2F)c1`: the IC50 was found to be 1.6 nM. As for `CCn1c(=O)cc(Nc2cc(C(=O)NC3CC3)ccc2Cl)c2cnn(-c3ccc(F)cc3F)c21`, the figure is 1.2 nM; as for `CCn1c(=O)cc(Nc2cc(C(=O)NC3CC3)ccc2Cl)c2cnn(-c3ccc(F)cc3)c21`, 1.7 nM. Take `Cn1c(=O)cc(Nc2cc(C(=O)NC3CC3)ccc2Cl)c2cnn(-c3ccc(F)cc3)c21`: the IC50 was 2.1 nM.

As for `Cn1c(=O)cc(Nc2cc(C(=O)NC3CC3)ccc2Cl)c2cnn(-c3cc(F)ccc3F)c21`, the IC50 was less than 25 nM. Consider `Cn1c(=O)cc(Nc2cc(C(=O)NC3CC3)ccc2F)c2cnn(-c3ccc(F)cc3F)c21`, for which the IC50 is less than 25 nM. To `CCn1c(=O)cc(Nc2cc(C(=O)NC3CC3)ccc2C)c2cnn(-c3ccc(F)cc3)c21` belongs less than 25 nM.
